Results as given in PMC4102012 (Current chemical biology, 2013).
Where “and” joins values, the source holds several entries; their conditions need not be identical. Equal entries are not always repeated. Where two headings read alike, the source gives them in different places.

Tests used:
[1] = target: T1, HsPBGS oligomeric equilibrium (hexamer/octamer) (Homo sapiens, UniProt P13716, C162A/K59N); details: for Effect on HsPBGS oligomeric distribution, in words: native PAGE
T1 sequence (P13716 1-330 K59N/C162A): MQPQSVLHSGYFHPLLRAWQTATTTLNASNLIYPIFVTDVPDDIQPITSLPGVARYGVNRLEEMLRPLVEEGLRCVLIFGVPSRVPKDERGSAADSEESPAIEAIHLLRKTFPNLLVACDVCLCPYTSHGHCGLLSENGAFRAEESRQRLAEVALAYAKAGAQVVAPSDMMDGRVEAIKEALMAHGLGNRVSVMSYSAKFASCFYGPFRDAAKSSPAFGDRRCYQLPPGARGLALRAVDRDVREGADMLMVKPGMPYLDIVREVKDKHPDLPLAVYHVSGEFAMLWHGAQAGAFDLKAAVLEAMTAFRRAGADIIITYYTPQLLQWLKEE

[2] = target: T1, HsPBGS oligomeric equilibrium (hexamer/octamer); experiment: Initial native PAGE screen of the NTP library; details: 2 mM compound, 40 °C 30 min
[3] = target: T2, human porphobilinogen synthase (HsPBGS) (Homo sapiens, UniProt P13716, C162A/K59N); experiment: biochemical; format: biochemical
T2 sequence (P13716 1-330 K59N/C162A): T1 sequence (P13716 1-330 K59N/C162A)

[4] = target: T3, PBGS from Pisum sativum (green pea) (Pisum sativum, UniProt P30124); experiment: Inhibition of PBGS from Pisum sativum; format: biochemical; details: data not shown
T3 sequence (P30124 1-398): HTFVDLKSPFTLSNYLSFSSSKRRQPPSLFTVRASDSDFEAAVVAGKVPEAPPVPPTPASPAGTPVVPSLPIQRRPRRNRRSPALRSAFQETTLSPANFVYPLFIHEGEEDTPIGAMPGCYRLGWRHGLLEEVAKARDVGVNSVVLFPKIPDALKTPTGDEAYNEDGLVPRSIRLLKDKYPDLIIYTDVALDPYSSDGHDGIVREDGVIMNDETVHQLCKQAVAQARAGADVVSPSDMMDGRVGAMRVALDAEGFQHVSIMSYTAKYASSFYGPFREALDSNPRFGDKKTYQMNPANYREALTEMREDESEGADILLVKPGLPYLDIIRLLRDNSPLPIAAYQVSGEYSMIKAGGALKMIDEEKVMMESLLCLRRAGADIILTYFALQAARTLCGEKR

[5] = target: PBGS from Pseudomonas aeruginosa (Pseudomonas aeruginosa, UniProt Q59643); experiment: Inhibition of PBGS from Pseudomonas aeruginosa; format: biochemical; details: data not shown
[6] = test system: PBGS from Yersinia enterocolitica; experiment: Inhibition of PBGS from Yersinia enterocolitica; format: biochemical; details: data not shown
HsPBGS = details: Johns Hopkins Clinical Compounds Library, native PAGE; ref [15]; cited from earlier work
[7] = reagents compatible with the HsPBGS activity assay
[8] = percentage of HsPBGS hexamer at 20 mM compound, 42 °C 1 h, no substrate
[9] = fit of the inhibition curve, 0 = hyperbolic decay to zero
[10] = at 3 mM compound, sum of hexameric and dimeric bands (~2:1) (footnote f)
[11] = preincubation 42 °C 1 h, 10 μg/mL HsPBGS, 10 mM substrate, final pH 7.8
[12] = at 2 mM compound (highest concentration, footnote d)

PBGS from Pseudomonas aeruginosa, sequence (Q59643 whole entry): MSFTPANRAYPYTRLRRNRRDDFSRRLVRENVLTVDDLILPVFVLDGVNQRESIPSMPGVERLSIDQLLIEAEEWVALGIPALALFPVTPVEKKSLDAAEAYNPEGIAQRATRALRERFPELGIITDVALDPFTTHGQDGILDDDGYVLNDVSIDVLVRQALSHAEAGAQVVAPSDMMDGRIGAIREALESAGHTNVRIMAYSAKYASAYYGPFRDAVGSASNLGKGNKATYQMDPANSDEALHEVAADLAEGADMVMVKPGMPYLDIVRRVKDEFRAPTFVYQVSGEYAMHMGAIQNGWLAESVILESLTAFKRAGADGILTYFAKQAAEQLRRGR

## O=Cc1ccc(Cl)cc1Cl [2,4-Dichlorobenzaldehyde]
[1]
  Effect on HsPBGS oligomeric distribution, in words: very effective at stabilizing the HsPBGS hexamer
[1]; [8]
  Mole Fraction Hexamer max (obsd): 86.2 ± 0.7%
[2]
  Result of initial screen (increase of mole fraction of hexamer): preliminary hits
[3]
  IC50: 107 ± 4 µM
  Inhibition of HsPBGS activity, in words: very poor inhibitors of HsPBGS activity

## O=Cc1c(Cl)cccc1Cl [2,6-Dichlorobenzaldehyde]
[1]
  Mole Fraction Hexamer max (obsd): 100% and 100 ± 0%
[3]
  FAmin (minimum fractional activity derived from the titration): 0%
  IC50: 15.2 ± 1.5 µM

## O=Cc1ccccc1Cl [2-Chlorobenzaldehyde]
[1]; [8]
  Mole Fraction Hexamer max (obsd): 91.8 ± 0.5%
[3]
  IC50: 44.6 ± 4.9 µM
[3]; [9]
  FAmin (minimum fractional activity derived from the titration): 0%

## O=Cc1ccc(Cl)c(Cl)c1 [3,4-Dichlorobenzaldehyde]
[1]; [8]
  Mole Fraction Hexamer max (obsd): 30.4 ± 2.2%
[3]
  IC50: 26.6 ± 2 µM
[3]; [9]
  FAmin (minimum fractional activity derived from the titration): 0%

## O=Cc1cccc(Br)c1 [3-Bromobenzaldehyde]
[1]
  Effect on HsPBGS oligomeric distribution, in words: very effective at stabilizing the HsPBGS hexamer
[1]; [8]
  Mole Fraction Hexamer max (obsd): 89.9 ± 3.4%
[2]
  Result of initial screen (increase of mole fraction of hexamer): preliminary hits
[3]
  IC50: 21.5 ± 3.5 µM
  Inhibition of HsPBGS activity, in words: very poor inhibitors of HsPBGS activity
[3]; [9]
  FAmin (minimum fractional activity derived from the titration): 80.8 ± 1.2%

## CC(=O)[O-].CC(=O)[O-].[Cd+2] [Cadmium acetate]
[1]; [10]
  Mole Fraction Hexamer max (obsd): 92.2 ± 0.6 ^f %
[3]; [9]
  FAmin (minimum fractional activity derived from the titration): 16.7 ± 4.0%
[3]; [11]
  IC50: 3.6 ± 0.7 µM

## [Cl][Cd][Cl] [Cadmium chloride]
[1]; [10]
  Mole Fraction Hexamer max (obsd): 94.9 ± 3.3 ^f %
[3]; [9]
  FAmin (minimum fractional activity derived from the titration): 9.2 ± 4.5%
[3]; [11]
  IC50: 6.9 ± 1.2 µM

## O=C1[C@H]2CC=CC[C@H]2C(=O)N1SC(Cl)(Cl)Cl [Captan, (3aR,7aS)-2-[(trichloromethyl)sulfanyl]-3a,4,7,7a-tetrahydro-1H-isoindole-1,3(2H)-dione]
[1]; [12]
  Mole Fraction Hexamer max (obsd): 72.3 ± 0.3% and 72.3 ± 0.2 ^d %
[3]
  IC50: 3 ± 0.3 µM
[3]; [9]
  FAmin (minimum fractional activity derived from the titration): 0%

## c1cc(OCC2CO2)cc(OCC2CO2)c1 (stereo not drawn) [Diglycidyl resorcinol ether]
[1]; [8]
  Mole Fraction Hexamer max (obsd): 87.4 ± 2.7%
[3]
  IC50: 36.3 ± 2.4 µM
[3]; [9]
  FAmin (minimum fractional activity derived from the titration): 0%

## COC(=O)c1ccc(C=O)cc1 [Methyl-p-formyl benzoate]
[1]; [8]
  Mole Fraction Hexamer max (obsd): 86.5 ± 1.4%
[3]; [9]
  FAmin (minimum fractional activity derived from the titration): 0%
[3]; [11]
  IC50: 40.3 ± 0.9 µM

## O=C1OC(O)C(C(Cl)Cl)=C1Cl (stereo not drawn) [Mutagen X, 3-chloro-4-(dichloromethyl)-5-hydroxy-2(5H-furanone)]
[4]
  Inhibition potency relative to HsPBGS, in words: comparable potency
[5]
  Inhibition potency relative to HsPBGS, in words: comparable potency
[1]
  Effect on HsPBGS oligomeric distribution, in words: increase the ratio of hexamer to octamer
[6]
  Inhibition potency relative to HsPBGS, in words: comparable potency
[3]; [9]
  FAmin (minimum fractional activity derived from the titration): 0%
[3]; [11]
  IC50: 1.4 ± 0.1 µM

## CNc1ccc(O)cc1.CNc1ccc(O)cc1.O=S(=O)(O)O [N-methyl-p-aminophenol sulfate]
[1]; [8]
  Mole Fraction Hexamer max (obsd): 68.1 ± 0.9%
[3]; [9]
  FAmin (minimum fractional activity derived from the titration): 0%
[3]; [11]
  IC50: 13.7 ± 1.3 µM

## O=C1CN(/N=C/c2ccc([N+](=O)[O-])o2)C(=O)N1 [Nitrofurantoin, (E)-1-[(5-nitro-2-furyl)methylideneamino]imidazolidine-2,4-dione, reference compound]
[3]
  FAmin (minimum fractional activity derived from the titration): 0%
  IC50: 5.9 ± 0.4 µM
HsPBGS
  Result of previous library screen: not identified as a hit

## NC(=O)NN=Cc1ccc([N+](=O)[O-])o1 [Nitrofurazone, 5-nitro-2-furaldehyde semicarbazone, reference compound]
[1]; [12]
  Mole Fraction Hexamer max (obsd): 48.5 ± 0.3 ^d %
[1]; at 2 mM compound (highest concentration, footnote d), listed as nitrofurazone
  Mole Fraction Hexamer max (obsd): 48.5 ± 0.3%
[3]; [9]
  FAmin (minimum fractional activity derived from the titration): 0%
HsPBGS
  Result of previous library screen: identified as a hexamer-stabilizing HsPBGS inhibitor

## CC1=C2[C@H](/C=C(\C)C(=O)O)CC[C@@H](C)[C@H]2CC1 [Valerenic acid, (2E)-3-[(4S,7R,7aR)-3,7-dimethyl-2,4,5,6,7,7a-hexahydro-1H-inden-4-yl]-2-methylacrylic acid]
[1]; [8]
  Mole Fraction Hexamer max (obsd): 64.1 ± 0.9%
[2]
  Result of initial screen (increase of mole fraction of hexamer): preliminary hits
[3]
  IC50: 8.2 ± 1.7 µM
[3]; [9]
  FAmin (minimum fractional activity derived from the titration): 33.2 ± 3.9%

## [Cd+2].[O-2] [cadmium oxide]
[2]
  Result of initial screen (increase of mole fraction of hexamer): preliminary hits
[7]
  Solubility, in words: insolubility in reagents compatible with the HsPBGS activity assay

## N.N.[Cl][Pt][Cl] [cis-Dichlorodiamine platinum, (SP-4-2)-diamminedichloridoplatinum, reference compound]
[1]; at 1 mM compound (footnote e), higher concentrations precipitate HsPBGS
  Mole Fraction Hexamer max (obsd): 53.0 ± 0.8 ^e %
[3]; [9]
  FAmin (minimum fractional activity derived from the titration): 0%
[3]; [11]
  IC50: 17.1 ± 1.5 µM

## O=[N+]([O-])c1cccc(CCl)c1 [m-Nitrobenzyl chloride]
[1]; [8]
  Mole Fraction Hexamer max (obsd): 79.8 ± 1.3%
[3]; [9]
  FAmin (minimum fractional activity derived from the titration): 0%
[3]; [11]
  IC50: 27.1 ± 2.2 µM

## C=Cc1ccc(C=C)cc1 [p-divinyl benzene]
[2]
  Result of initial screen (increase of mole fraction of hexamer): preliminary hits
[7]
  Solubility, in words: insolubility in reagents compatible with the HsPBGS activity assay

## O=C/C=C/c1ccccc1 [trans-cinnamaldehyde]
[2]
  Result of initial screen (increase of mole fraction of hexamer): preliminary hits
